Literature values, collected in patent publication US20160235660A1, “COSMETIC COMPOSITION AND USE THEREOF” (EMS S.A., priority 2015, published 2016).

Test system: facial melasma
Settings: hydroquinone 4% vs 0.75% kojic acid cream

Oc1ccc(O)cc1 [hydroquinone, 1,4-dihydroxybenzene]
action in the treatment of melasma compared with kojic acid: superiority
